Laboratory results taken from ChEMBL document CHEMBL1139849, “Antifungal acylcyclopentenediones from fruiting bodies of Hygrophorus chrysodon” (2007).

Key:
Assay type in all cases: functional
Details in all cases: read-out: IZ
Fusarium verticillioides [1] = assay: Antifungal activity against Fusarium verticillioides Nirenberg (Sacc.) by agar diffusion method at 100 ug
Fusarium verticillioides [2] = assay: Antifungal activity against Fusarium verticillioides Nirenberg (Sacc.) by agar diffusion method at 300 ug
Fusarium verticillioides [3] = assay: Antifungal activity against Fusarium verticillioides Nirenberg (Sacc.) by agar diffusion method at 50 ug

SMILES | zone of inhibition at 100 µg/disc (Fusarium verticillioides [1]) | zone of inhibition at 300 µg/disc (Fusarium verticillioides [2]) | zone of inhibition at 50 µg/disc (Fusarium verticillioides [3])
C=CCCCCCCCCC(O)=C1C(=O)C=CC1=O [CHRYSOTRIONE A] | 10 mm | 35 mm | 3 mm
CCCCCCCCCCC(O)=C1C(=O)C=CC1=O [CHRYSOTRIONE B] | 15 mm | 18 mm | 3 mm
Cc1cc(C2CCCCC2)n(O)c(=O)c1 [CICLOPIROX] | – | – | 25 mm
